This passage reports IC50 results from US12630529B2, “GCN2 modulator compounds” (ALESTA THERAPEUTICS BV, priority 2020, dated 2026).

What is called IC50 is the concentration needed to halve the response being measured. Low values mean greater potency in that assay, high ones weaker potency in that assay.

The assay deals with T1, GCN2 (Mus musculus, UniProt Q9QZ05).
T1 construct: endogenous in cells; host or cells: Neuro 2a (N2a)
T1 sequence (Q9QZ05 whole entry): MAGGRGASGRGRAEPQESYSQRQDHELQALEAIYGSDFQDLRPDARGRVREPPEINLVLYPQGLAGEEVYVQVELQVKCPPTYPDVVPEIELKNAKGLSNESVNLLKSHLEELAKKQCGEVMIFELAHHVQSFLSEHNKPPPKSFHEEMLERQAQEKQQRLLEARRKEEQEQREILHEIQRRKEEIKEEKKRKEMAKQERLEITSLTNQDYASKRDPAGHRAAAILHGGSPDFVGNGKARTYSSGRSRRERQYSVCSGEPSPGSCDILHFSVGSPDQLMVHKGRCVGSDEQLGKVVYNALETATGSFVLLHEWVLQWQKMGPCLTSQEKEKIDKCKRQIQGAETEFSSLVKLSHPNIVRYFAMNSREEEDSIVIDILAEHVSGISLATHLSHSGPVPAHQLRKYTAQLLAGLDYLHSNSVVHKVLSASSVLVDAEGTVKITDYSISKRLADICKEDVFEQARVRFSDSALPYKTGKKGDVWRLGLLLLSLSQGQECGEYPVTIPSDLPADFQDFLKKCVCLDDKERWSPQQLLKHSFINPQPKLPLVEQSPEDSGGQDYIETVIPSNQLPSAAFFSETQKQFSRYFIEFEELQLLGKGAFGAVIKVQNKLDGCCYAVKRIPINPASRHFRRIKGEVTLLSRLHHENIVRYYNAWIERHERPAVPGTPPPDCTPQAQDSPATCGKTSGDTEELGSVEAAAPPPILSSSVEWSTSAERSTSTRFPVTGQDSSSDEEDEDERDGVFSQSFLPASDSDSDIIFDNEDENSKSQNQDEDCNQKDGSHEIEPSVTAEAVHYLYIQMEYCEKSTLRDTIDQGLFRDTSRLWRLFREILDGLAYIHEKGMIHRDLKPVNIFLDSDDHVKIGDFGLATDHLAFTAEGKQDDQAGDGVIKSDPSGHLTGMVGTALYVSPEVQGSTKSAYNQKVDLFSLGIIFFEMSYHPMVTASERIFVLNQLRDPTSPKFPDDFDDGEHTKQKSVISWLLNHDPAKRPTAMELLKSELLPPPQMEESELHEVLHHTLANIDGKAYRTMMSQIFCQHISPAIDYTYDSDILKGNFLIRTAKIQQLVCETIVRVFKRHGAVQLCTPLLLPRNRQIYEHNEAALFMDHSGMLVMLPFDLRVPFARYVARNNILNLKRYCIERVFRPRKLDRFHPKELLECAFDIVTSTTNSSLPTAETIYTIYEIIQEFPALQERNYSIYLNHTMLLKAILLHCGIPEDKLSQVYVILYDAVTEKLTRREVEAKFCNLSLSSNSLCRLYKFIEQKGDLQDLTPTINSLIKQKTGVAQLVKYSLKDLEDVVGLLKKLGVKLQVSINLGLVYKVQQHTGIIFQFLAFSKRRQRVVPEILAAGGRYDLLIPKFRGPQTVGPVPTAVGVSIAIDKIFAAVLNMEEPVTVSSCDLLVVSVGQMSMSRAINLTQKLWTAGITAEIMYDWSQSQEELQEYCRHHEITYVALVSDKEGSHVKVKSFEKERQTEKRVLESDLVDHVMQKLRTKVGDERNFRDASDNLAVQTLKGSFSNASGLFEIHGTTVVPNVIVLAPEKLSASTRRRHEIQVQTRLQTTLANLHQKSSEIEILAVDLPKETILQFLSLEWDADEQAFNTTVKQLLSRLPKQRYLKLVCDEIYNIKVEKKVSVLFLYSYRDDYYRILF
In words: GCN2 inhibition cell-based assay (P-GCN2 Western blot in Neuro 2a cells). To be noted: amino acid deprived media (DMEM lacking L-cysteine and methionine), 3 hours. Here is the method: Neuro 2a cells (N2a) were maintained at 37° C. and 5% CO2 in DMEM/F12 medium (Fisher Scientific) supplemented with 10% fetal bovine serum and 1% penicillin-streptomycin (complete medium). 300,000 cells/well were seeded in flat bottom 6 well plates 48 hours before treatment with the compounds.
Testing compounds were prepared at different concentrations ranging from 10 μM to 0.1 nM on DMEM medium lacking L-cysteine and methionine (DMEM-CM) (Gibco) and supplemented with 1% penicillin-streptomycin. Complete medium was used as control of non-stressed condition. After 48 hours, the medium was removed from each well and 2 mL per well of each treatment was added. Cells were treated for 3 hours at 37° C. and 5% CO2.
After the incubation time, each well was washed with sterile 1×PBS and then 100 μL of ice-cold lysis buffer supplemented with phosphatase and protease inhibitors was added. Lysates were transferred to 1.5 mL tubes and sonicated for 3 min, and total protein amounts were quantified using BCA assay (e.g., BCA Protein Assay Kit; Pierce) according to manufacturer instructions. Equal amount of proteins was loaded on SDS-PAGE gels for electrophoresis and then transferred onto 0.2 µm filter pore PVDF membranes.
Membranes were then blocked in blocking buffer containing 3% BSA/0.1% Tween/1×Tris-buffered saline (TBS) for 1 hour and then incubated overnight at 4° C. with agitation with anti-pGCN2 primary antibody (Abcam ab-75836), diluted 1:1,000 in blocking buffer. […] (Sigma Aldrich) was used as a loading control.
Membranes were then incubated with the corresponding secondary antibody to detect immune-reactive bands using enhanced chemiluminescence (e.g., ECL Western Blotting Substrate Pierce).
Images were acquired (e.g., using Chemidoc™ equipment) and quantitated by densitometry using ImageJ software. IC50 values were determined from a concentration-response curve using GraphPad prism software.
IC50 values from P-GCN2 inhibition assay after induction with amino acid deprived media in the presence of different concentrations of test compounds are shown in Table 2. For IC50 values: +++ refers to <10 nM of test compound; ++ refers to 10 nM to 100 nM of test compound; + refers to 100 nM to 1,000 nM of test compound and − refers to >1,000 nM of test compound.
Under GCN2-mediated stress conditions, resulting from an amino acid deprived medium, GCN2 is generally phosphorylated. Accordingly, inhibition of GCN2 phosphorylation as a result of the test compound indicates inhibition of the GCN2 pathway.
Background: A western blot detects proteins with antibodies after separation by electrophoresis.
As to `COc1ncc(Cl)cc1S(=O)(=O)Nc1ccc(F)c(-c2cccc3cnc(N)nc23)c1F` [Compound 44], the IC50 was > 1000 nM.
To `CNc1ncc2cc(-c3c(F)ccc(NS(=O)(=O)c4cc(Cl)cnc4OC)c3F)ccc2n1` [Compound 47] belongs < 10 nM; to `Nc1ncc2cc(-c3c(F)ccc(NS(=O)(=O)c4ccc(F)c(F)c4)c3F)ccc2n1` [Compound 132], > 1000 nM.
The figure for `COc1ncc(Cl)cc1S(=O)(=O)Nc1ccc(F)c(-c2ccc3nc(N[C@H]4CC[C@H](O)CC4)ncc3c2)c1F` [Compound 65] is < 10 nM; for `Nc1ncc2cc(-c3c(F)ccc(NS(=O)(=O)c4ccsc4)c3F)ccc2n1` [Compound 140] it is > 1000 nM.
On to `Nc1ncc2cc(-c3c(F)ccc(NS(=O)(=O)c4cc(C(F)(F)F)ccc4C(F)(F)F)c3F)ccc2n1` [Compound 121], for which the IC50 is < 10 nM.
The figure for `Cc1ccc(S(=O)(=O)Nc2ccc(F)c(-c3ccc4nc(N)ncc4c3)c2F)cc1F` [Compound 159] is 10 to 100 nM.
The compound `COc1ncc(Cl)cc1S(=O)(=O)Nc1ccc(F)c(-c2ccc3nc(NC(=O)C(C)(C)C)ncc3c2)c1F` [Compound 105] registered an IC50 of 10 to 100 nM.
The figure for `Nc1ncc2c(-c3c(F)ccc(NS(=O)(=O)c4cc(Cl)ccc4Cl)c3F)cccc2n1` [Compound 111] is > 1000 nM; for `Nc1ncc2cc(-c3c(F)ccc(NS(=O)(=O)c4ccc5occc5c4)c3F)ccc2n1` [Compound 122] it is 100 to 1000 nM.
To `Nc1ncc2cc(-c3c(F)ccc(NS(=O)(=O)C4CCCCC4)c3F)ccc2n1` [Compound 81] belongs > 1000 nM; to `CC(C)c1cccc(S(=O)(=O)Nc2ccc(F)c(-c3ccc4nc(N)ncc4c3)c2F)c1` [Compound 141], > 1000 nM; to `Nc1ncc2cc(-c3c(F)ccc(NS(=O)(=O)c4cc(Cl)cc(Cl)c4)c3F)ccc2n1` [Compound 59], < 10 nM.
To `Nc1ncc2cc(-c3c(F)ccc(NS(=O)(=O)c4ccc5c(c4)CCC5)c3F)ccc2n1` [Compound 161] belongs > 1000 nM; to `COc1cc(S(=O)(=O)Nc2ccc(F)c(-c3ccc4nc(N)ncc4c3)c2F)ccc1F` [Compound 143], 100 to 1000 nM.
`Cc1ccc(NS(=O)(=O)c2cc(Cl)ccc2Cl)cc1-c1ccc2nc(N)ncc2c1` [Compound 16] came in with an IC50 of 100 to 1000 nM.
To `COc1ccc(S(=O)(=O)Nc2ccc(F)c(-c3ccc4nc(N)ncc4c3)c2F)cc1Cl` [Compound 148] belongs 100 to 1000 nM; to `Cc1cc(S(=O)(=O)Nc2ccc(F)c(-c3ccc4nc(N)ncc4c3)c2F)c(C)cc1Cl` [Compound 109], 10 to 100 nM.
With `COc1ncc(Cl)cc1S(=O)(=O)Nc1cccc(-c2ccc3nc(N)ncc3c2)c1C` [Compound 51], the IC50 is < 10 nM.
With `COc1ncc(Cl)cc1S(=O)(=O)Nc1ccc(F)c(-c2ccc3nc(N[C@@H](CO)c4ccccc4)ncc3c2)c1F` [Compound 154], the IC50 was 100 to 1000 nM.
The figure for `Nc1ncc2cc(-c3c(F)ccc(NS(=O)(=O)c4cc(Cl)ccc4C(F)(F)F)c3F)ccc2n1` [Compound 58] is < 10 nM.
The figure for `COc1ccc(S(=O)(=O)Nc2ccc(F)c(-c3ccc4nc(N)ncc4c3)c2F)cc1C` [Compound 117] is > 1000 nM; for `Nc1ncc2cc(-c3c(F)ccc(NS(=O)(=O)c4ccc(Cl)c(C(F)(F)F)c4)c3F)ccc2n1` [Compound 149] it is 100 to 1000 nM; for `COc1ccc(S(=O)(=O)Nc2ccc(F)c(-c3ccc4nc(N)ncc4c3)c2F)cc1OC` [Compound 115] it is 10 to 100 nM.
The figure for `Nc1ncc2cc(-c3c(F)ccc(NS(=O)(=O)c4ccc(F)c(C(F)(F)F)c4)c3F)ccc2n1` [Compound 136] is 100 to 1000 nM; for `COc1ccc(OC)c(S(=O)(=O)Nc2ccc(F)c(-c3ccc4nc(N)ncc4c3)c2F)c1` [Compound 119] it is > 1000 nM.
Take `Nc1ncc2cc(-c3c(F)ccc(NS(=O)(=O)c4ccc(Cl)c(Cl)c4)c3F)ccc2n1` [Compound 9]: the IC50 lay in the range of 100 to 1000 nM.
Turning to `Nc1ncc2cc(-c3c(F)ccc(NS(=O)(=O)c4ccc(Cl)c(F)c4)c3F)ccc2n1` [Compound 146], the IC50 fell in the range of 100 to 1000 nM.
To `Nc1ncc2cc(-c3c(F)ccc(NS(=O)(=O)c4cc(F)cc(F)c4)c3F)ccc2n1` [Compound 112] belongs > 1000 nM.
To `O=S(=O)(Nc1ccc(F)c(-c2cc(F)c3[nH]cnc3c2)c1F)c1cc(Cl)ccc1Cl` [Compound 18] belongs > 1000 nM; to `O=S(=O)(Nc1ccc(F)c(-c2ccc3nc(N[C@H]4CC[C@H](O)CC4)ncc3c2)c1F)c1cc(Cl)cc(CO)c1Cl` [Compound 69], < 10 nM; to `COc1ccc(F)cc1S(=O)(=O)Nc1ccc(F)c(-c2ccc3nc(N)ncc3c2)c1F` [Compound 110], > 1000 nM.
To `O=S(=O)(Nc1ccc(F)c(-c2ccc3nc(N[C@H](CO)c4ccccc4)ncc3c2)c1F)c1cc(Cl)ccc1C(F)(F)F` [Compound 166] belongs 100 to 1000 nM.
Consider `Nc1ncc2cc(-c3c(F)ccc(NS(=O)(=O)c4cccs4)c3F)ccc2n1` [Compound 142], for which the IC50 was > 1000 nM.
To `COc1ncc(Cl)cc1S(=O)(=O)Nc1ccc(F)c(-c2ccc3nc(N[C@H](CO)c4ccccc4)ncc3c2)c1F` [Compound 163] belongs 100 to 1000 nM; to `Nc1ncc2cc(-c3c(F)ccc(NS(=O)(=O)c4cc(C(F)(F)F)ccc4F)c3F)ccc2n1` [Compound 135], 100 to 1000 nM; to `Nc1ncc2cc(-c3c(F)ccc(NS(=O)(=O)c4ccc(F)c(Cl)c4)c3F)ccc2n1` [Compound 158], 100 to 1000 nM.
The figure for `Nc1ncc2cc(-c3c(F)ccc(NS(=O)(=O)c4ccc(F)c(C(F)(F)F)c4)c3F)ccc2n1` [Compound 138] is > 1000 nM; for `Nc1ncc2cc(-c3c(F)ccc(NS(=O)(=O)c4cccc(F)c4F)c3F)ccc2n1` [Compound 124] it is > 1000 nM.
The figure for `O=S(=O)(Nc1ccc(F)c(-c2ccc3nc(N[C@H]4CC[C@H](O)CC4)ncc3c2)c1F)c1cc(Cl)ccc1C(F)(F)F` [Compound 164] is < 10 nM; for `COc1ccc(C)cc1S(=O)(=O)Nc1ccc(F)c(-c2ccc3nc(N)ncc3c2)c1F` [Compound 118] it is 10 to 100 nM.
Regarding `Cc1c(NS(=O)(=O)c2cc(Cl)ccc2Cl)cccc1-c1ccc2nc(N)ncc2c1` [Compound 11], the half-inhibitory concentration (IC50) is 10 to 100 nM.
The figure for `O=S(=O)(Nc1ccc(F)c(-c2ccc3nc(N[C@H]4CC[C@H](O)CC4)ncc3c2)c1F)c1cc(Cl)ccc1Cl` [Compound 67] is < 10 nM; for `Nc1ncnc2ccc(-c3c(F)ccc(NS(=O)(=O)c4cc(Cl)ccc4Cl)c3F)cc12` [Compound 17] it is > 1000 nM.
As to `COc1ncc(Cl)cc1S(=O)(=O)Nc1ccc(F)c(-c2ccc3nc(N[C@H](C)CO)ncc3c2)c1F` [Compound 66], the IC50 is < 10 nM.
To `Nc1ncc2cc(-c3c(F)ccc(NS(=O)(=O)c4cc(C(F)(F)F)cc(C(F)(F)F)c4)c3F)ccc2n1` [Compound 144] belongs 10 to 100 nM.
To `COc1ncc(Cl)cc1S(=O)(=O)Nc1ccc(F)c(-c2ccc3nc(N[C@@H](C)CO)ncc3c2)c1F` [Compound 157] belongs < 10 nM; to `CNc1ncc2cc(-c3c(F)ccc(NS(=O)(=O)c4cc(Cl)cc(CO)c4Cl)c3F)ccc2n1` [Compound 162], 10 to 100 nM.
To `COc1ncc(Cl)cc1S(=O)(=O)Nc1ccc(Cl)c(-c2ccc3nc(N)ncc3c2)c1Cl` [Compound 131] belongs 10 to 100 nM; to `COc1ccc(Cl)cc1S(=O)(=O)Nc1ccc(F)c(-c2ccc3nc(N)ncc3c2)c1F` [Compound 10], < 10 nM.
On to `COc1ncc(Cl)cc1S(=O)(=O)Nc1ccc(F)c(-c2ccc3nc(NCCO)ncc3c2)c1F` [Compound 46], for which the IC50 was < 10 nM.
To `Nc1ncc2cc(-c3c(F)ccc(NS(=O)(=O)c4cc(F)ccc4F)c3F)ccc2n1` [Compound 8] belongs > 1000 nM.
The figure for `O=S(=O)(Nc1ccc(F)c(-c2ccc3nc(N[C@@H](CO)c4ccccc4)ncc3c2)c1F)c1cc(Cl)ccc1C(F)(F)F` [Compound 167] is 100 to 1000 nM.
Compound `Nc1ncc2cc(-c3c(F)ccc(NS(=O)(=O)c4cccc(OC(F)(F)F)c4)c3F)ccc2n1` [Compound 139] showed an IC50 of 100 to 1000 nM.
For the compound `O=S(=O)(Nc1ncc(F)c(-c2ccc3nc(NCCO)ncc3c2)c1F)c1cc(Cl)ccc1Cl` [Compound 128], the IC50 is < 10 nM.
To `Nc1ncc2cc(-c3c(F)ccc(NS(=O)(=O)c4cc(Cl)cc(C(F)(F)F)c4)c3F)ccc2n1` [Compound 63] belongs 10 to 100 nM.
The figure for `O=S(=O)(Nc1ccc(F)c(-c2ccc3nc(N[C@H]4CC[C@@H](O)CC4)ncc3c2)c1F)c1cc(Cl)ccc1C(F)(F)F` [Compound 165] is 10 to 100 nM.
